From patent publication US11413264B2, “Carbamoyl phenylalaninol analogs and uses thereof” (Jazz Pharmaceuticals Ireland Limited, priority 2017, dated 2022)
Structures can show the parent of a compound that is named as a salt. Where two headings read alike, the source gives them in different places.

What was measured:
[1] = biological target: T1, vesicular monoamine transporter (VMAT2) (Rattus norvegicus, UniProt Q01827); experiment: Competitive radioligand binding assay, VMAT2 transporter (antagonist radioligand); settings: compound at 10 μM
T1 construct: Rat brain; from tissue; host or cells: rat brain minus cerebellum, membrane fraction
Description: (§1) Compounds of the invention were tested for pharmacological activity in comparison to APC. Eight binding assays were carried out to provide a binding profile for each compound, including binding to dopamine transporter (DAT), norepinephrine transporter (NET), serotonin (5-HT) transporter (SERT), alpha2A adrenergic receptor (Alpha2A), alpha2C adrenergic receptor (Alpha2C), D2S dopamine receptor (D2S), D2L dopamine receptor (D2L), and vesicular monoamine transporter (VMAT2). Competitive binding assays using a radiolabeled ligand were carried out with each compound at 10 μM. The radioligand for each target was as follows: DAT—BTCP, NET—nisoxetine, SERT—imipramine, Alpha2A—yohimbine, Alpha2C—yohimbine, D2S—7-OH-DPAT, D2L—methylspiperone, VMAT2—tetrabenazine. The source of the receptors and transporters were prepared cell membrane fractions.

[2] = biological target: T2, D2L dopamine receptor (D2L) (Homo sapiens, UniProt P14416); experiment: Competitive radioligand binding assay, D2L (antagonist radioligand); settings: compound at 10 μM
T2 construct: expressed in transfected cells; host or cells: HEK-293 cells (membrane fractions)
Description: as §1

[3] = biological target: T3, serotonin (5-HT) transporter (SERT) (Homo sapiens, UniProt P31645); experiment: Competitive radioligand binding assay, 5-HT transporter (antagonist radioligand); settings: compound at 10 μM
T3 construct: expressed in transfected cells; host or cells: CHO cells (membrane fractions)
Description: as §1

[4] = biological target: T4, D2S dopamine receptor (D2S) (Homo sapiens, UniProt P14416); experiment: Competitive radioligand binding assay, D2S (agonist radioligand); settings: compound at 10 μM
T4 construct: expressed in transfected cells; host or cells: HEK-293 cells (membrane fractions)
Description: as §1

[5] = biological target: T5, alpha2C adrenergic receptor (Alpha2C) (Homo sapiens, UniProt P18825); experiment: Competitive radioligand binding assay, α2C (antagonist radioligand); settings: compound at 10 μM
T5 construct: expressed in transfected cells; host or cells: CHO cells (membrane fractions)
T5 sequence (P18825 1-462): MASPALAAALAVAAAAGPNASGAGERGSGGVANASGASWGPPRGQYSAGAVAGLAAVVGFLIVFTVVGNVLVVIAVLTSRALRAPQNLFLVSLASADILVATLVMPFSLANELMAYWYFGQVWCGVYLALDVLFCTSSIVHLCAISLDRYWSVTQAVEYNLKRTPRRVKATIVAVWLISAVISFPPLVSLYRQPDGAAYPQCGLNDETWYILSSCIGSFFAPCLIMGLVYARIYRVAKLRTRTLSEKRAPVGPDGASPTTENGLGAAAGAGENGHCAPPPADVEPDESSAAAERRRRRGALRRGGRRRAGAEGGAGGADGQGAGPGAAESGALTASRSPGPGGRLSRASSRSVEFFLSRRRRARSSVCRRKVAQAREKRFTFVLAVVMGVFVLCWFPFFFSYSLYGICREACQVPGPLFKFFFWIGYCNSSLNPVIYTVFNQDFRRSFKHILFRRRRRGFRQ
Description: as §1

[6] = biological target: T6, dopamine transporter (DAT) (Homo sapiens, UniProt Q01959); experiment: Competitive radioligand binding assay, dopamine transporter (antagonist radioligand); settings: compound at 10 μM; for binding to the dopamine transporter (in words): summary
T6 construct: expressed in transfected cells; host or cells: CHO cells (membrane fractions)
Description: as §1

[7] = biological target: T7, norepinephrine transporter (NET) (Homo sapiens, UniProt P23975); experiment: Competitive radioligand binding assay, norepinephrine transporter (antagonist radioligand); settings: compound at 10 μM
T7 construct: expressed in transfected cells; host or cells: CHO cells (membrane fractions)
Description: as §1

[8] = biological target: T8, alpha2A adrenergic receptor (Alpha2A) (Homo sapiens, UniProt P08913); experiment: Competitive radioligand binding assay, α2A (antagonist radioligand); settings: compound at 10 μM
T8 construct: expressed in transfected cells; host or cells: CHO cells (membrane fractions)
T8 sequence (P08913 1-465): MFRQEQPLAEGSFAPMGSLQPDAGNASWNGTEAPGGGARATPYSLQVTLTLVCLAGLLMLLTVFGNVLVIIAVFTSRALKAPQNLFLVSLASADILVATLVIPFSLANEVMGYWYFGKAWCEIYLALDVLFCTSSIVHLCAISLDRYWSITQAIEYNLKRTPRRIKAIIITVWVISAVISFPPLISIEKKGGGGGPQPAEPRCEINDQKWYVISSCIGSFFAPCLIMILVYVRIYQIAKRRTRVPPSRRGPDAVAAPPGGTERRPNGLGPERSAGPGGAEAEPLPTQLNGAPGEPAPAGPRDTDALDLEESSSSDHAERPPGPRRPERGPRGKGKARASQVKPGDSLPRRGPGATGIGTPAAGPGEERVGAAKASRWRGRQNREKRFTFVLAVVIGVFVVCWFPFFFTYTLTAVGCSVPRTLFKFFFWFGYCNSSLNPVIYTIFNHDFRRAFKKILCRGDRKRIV
Description: as §1

[9] = VMAT2 transporter, single value, read-out: % inhibition of control specific binding, 1st
[10] = [3H]dihydrotetrabenazine 10 nM, rat brain (minus cerebellum), read-out: % Inhibition of Binding at Each Transporter or Receptor Target, VMAT2
[11] = D2L, 1st individual result, read-out: % inhibition of control specific binding, 1st
[12] = D2L, 2nd individual result, read-out: % inhibition of control specific binding, 2nd
[13] = D2L, mean, read-out: % inhibition of control specific binding, Mean
[14] = [3H]methyl-spiperone 0.3 nM, human recombinant (HEK-293 cells), read-out: % Inhibition of Binding at Each Transporter or Receptor Target, D2L
[15] = 5-HT transporter, 1st individual result, read-out: % inhibition of control specific binding, 1st
[16] = 5-HT transporter, 2nd individual result, read-out: % inhibition of control specific binding, 2nd
[17] = 5-HT transporter, mean, read-out: % inhibition of control specific binding, Mean
[18] = [3H]imipramine 2 nM, human recombinant (CHO cells), read-out: % Inhibition of Binding at Each Transporter or Receptor Target, SERT
[19] = D2S, 1st individual result, read-out: % inhibition of control specific binding, 1st
[20] = D2S, 2nd individual result, read-out: % inhibition of control specific binding, 2nd
[21] = D2S, mean, read-out: % inhibition of control specific binding, Mean
[22] = [3H]7-OH-DPAT 1 nM, human recombinant (HEK-293 cells), read-out: % Inhibition of Binding at Each Transporter or Receptor Target, D2S
[23] = 1st individual result, read-out: % inhibition of control specific binding, 1st
[24] = 2nd individual result, read-out: % inhibition of control specific binding, 2nd
[25] = mean, read-out: % inhibition of control specific binding, Mean
[26] = Dopamine transporter, 1st individual result, read-out: % inhibition of control specific binding, 1st
[27] = Dopamine transporter, 2nd individual result, read-out: % inhibition of control specific binding, 2nd
[28] = Dopamine transporter, mean, read-out: % inhibition of control specific binding, Mean
[29] = [3H]BTCP 4 nM, human recombinant (CHO cells), read-out: % Inhibition of Binding at Each Transporter or Receptor Target, DAT
[30] = Norepinephrine transporter, 1st individual result, read-out: % inhibition of control specific binding, 1st
[31] = Norepinephrine transporter, 2nd individual result, read-out: % inhibition of control specific binding, 2nd
[32] = Norepinephrine transporter, mean, read-out: % inhibition of control specific binding, Mean
[33] = [3H]nisoxetine 1 nM, human recombinant (CHO cells), read-out: % Inhibition of Binding at Each Transporter or Receptor Target, NET

T3 sequence (P31645 whole entry): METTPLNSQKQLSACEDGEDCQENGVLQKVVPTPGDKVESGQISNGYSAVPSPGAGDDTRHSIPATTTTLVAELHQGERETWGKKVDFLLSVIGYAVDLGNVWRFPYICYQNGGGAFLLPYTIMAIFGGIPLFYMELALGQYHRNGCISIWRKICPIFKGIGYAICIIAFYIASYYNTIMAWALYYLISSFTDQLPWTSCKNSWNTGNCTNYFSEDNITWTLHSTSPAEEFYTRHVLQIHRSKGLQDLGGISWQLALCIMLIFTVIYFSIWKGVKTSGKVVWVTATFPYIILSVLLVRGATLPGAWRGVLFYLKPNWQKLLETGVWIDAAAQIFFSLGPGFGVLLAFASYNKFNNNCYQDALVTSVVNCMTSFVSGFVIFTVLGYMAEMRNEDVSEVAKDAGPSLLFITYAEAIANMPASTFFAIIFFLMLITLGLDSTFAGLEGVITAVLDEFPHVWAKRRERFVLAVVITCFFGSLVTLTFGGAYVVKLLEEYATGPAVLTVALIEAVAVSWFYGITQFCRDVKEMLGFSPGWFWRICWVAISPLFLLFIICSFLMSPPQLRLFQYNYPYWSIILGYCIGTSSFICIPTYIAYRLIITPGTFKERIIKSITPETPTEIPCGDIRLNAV
T2 sequence (P14416 whole entry): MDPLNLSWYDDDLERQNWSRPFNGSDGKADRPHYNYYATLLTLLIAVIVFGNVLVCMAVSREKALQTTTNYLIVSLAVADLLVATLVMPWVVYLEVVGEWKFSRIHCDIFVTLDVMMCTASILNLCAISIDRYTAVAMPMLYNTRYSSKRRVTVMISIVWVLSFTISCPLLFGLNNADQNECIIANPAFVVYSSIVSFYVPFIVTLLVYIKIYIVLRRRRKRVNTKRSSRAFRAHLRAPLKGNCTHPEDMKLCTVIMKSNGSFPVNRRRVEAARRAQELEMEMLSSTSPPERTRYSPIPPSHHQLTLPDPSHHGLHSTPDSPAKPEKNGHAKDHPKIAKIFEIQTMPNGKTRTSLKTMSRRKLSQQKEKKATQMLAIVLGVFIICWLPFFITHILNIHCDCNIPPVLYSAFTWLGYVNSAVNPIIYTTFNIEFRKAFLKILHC
T6 sequence (Q01959 whole entry): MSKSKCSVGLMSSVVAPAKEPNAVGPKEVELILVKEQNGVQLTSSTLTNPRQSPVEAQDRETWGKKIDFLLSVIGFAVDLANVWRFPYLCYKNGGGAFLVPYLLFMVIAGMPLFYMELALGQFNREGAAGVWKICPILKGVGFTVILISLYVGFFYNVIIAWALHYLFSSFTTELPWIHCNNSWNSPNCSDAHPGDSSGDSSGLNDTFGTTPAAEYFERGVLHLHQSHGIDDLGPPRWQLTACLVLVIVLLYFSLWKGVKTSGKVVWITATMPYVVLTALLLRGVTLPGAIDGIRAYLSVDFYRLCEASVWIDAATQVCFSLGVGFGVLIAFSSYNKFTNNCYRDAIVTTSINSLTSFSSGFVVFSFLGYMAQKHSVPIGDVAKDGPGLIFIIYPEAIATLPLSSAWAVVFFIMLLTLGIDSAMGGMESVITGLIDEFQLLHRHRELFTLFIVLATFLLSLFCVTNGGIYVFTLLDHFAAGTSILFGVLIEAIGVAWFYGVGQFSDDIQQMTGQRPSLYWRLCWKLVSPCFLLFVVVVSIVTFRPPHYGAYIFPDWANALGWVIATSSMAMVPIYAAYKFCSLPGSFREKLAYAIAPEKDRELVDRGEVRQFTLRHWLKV
T4 sequence (P14416 1-414 isoform P14416-2): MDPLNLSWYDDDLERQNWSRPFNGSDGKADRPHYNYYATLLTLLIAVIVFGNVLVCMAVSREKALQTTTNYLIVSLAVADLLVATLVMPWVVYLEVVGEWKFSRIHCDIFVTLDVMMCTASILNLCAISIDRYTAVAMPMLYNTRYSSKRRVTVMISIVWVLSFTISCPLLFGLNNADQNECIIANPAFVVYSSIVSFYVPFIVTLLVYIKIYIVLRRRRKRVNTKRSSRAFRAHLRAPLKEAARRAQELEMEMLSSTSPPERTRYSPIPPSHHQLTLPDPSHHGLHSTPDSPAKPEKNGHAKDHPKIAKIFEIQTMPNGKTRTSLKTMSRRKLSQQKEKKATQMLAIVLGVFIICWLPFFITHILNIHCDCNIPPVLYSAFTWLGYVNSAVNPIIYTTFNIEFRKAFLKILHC
T1 sequence (Q01827 whole entry): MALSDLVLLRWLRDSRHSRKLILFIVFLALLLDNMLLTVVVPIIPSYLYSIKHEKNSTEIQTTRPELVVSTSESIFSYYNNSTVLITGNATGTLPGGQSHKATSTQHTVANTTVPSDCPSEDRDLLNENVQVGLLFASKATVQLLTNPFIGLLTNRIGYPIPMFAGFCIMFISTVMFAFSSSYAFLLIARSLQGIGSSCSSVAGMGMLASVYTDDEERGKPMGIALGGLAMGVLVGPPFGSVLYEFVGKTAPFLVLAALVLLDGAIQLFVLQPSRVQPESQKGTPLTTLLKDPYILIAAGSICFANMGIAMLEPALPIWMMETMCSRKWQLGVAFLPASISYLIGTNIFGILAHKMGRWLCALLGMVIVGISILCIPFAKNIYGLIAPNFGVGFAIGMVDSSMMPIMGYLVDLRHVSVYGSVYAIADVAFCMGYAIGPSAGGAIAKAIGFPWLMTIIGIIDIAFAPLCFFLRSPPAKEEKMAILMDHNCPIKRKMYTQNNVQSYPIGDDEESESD
T7 sequence (P23975 whole entry): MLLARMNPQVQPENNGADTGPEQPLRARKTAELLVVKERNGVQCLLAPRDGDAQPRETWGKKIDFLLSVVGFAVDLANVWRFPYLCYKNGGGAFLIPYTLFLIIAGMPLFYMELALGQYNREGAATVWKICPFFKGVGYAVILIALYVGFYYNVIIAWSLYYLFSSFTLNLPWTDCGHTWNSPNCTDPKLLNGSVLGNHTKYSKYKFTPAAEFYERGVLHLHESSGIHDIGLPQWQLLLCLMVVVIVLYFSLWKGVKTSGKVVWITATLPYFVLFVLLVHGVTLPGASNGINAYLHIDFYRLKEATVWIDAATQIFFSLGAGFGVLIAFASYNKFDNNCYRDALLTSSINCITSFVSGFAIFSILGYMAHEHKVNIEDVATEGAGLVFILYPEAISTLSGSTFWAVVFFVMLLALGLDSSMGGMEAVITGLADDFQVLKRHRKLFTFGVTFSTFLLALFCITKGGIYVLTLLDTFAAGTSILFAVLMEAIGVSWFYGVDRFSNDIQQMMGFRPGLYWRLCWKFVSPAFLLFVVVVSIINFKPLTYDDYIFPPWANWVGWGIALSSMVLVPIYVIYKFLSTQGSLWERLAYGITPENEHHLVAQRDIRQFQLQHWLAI

Row | SMILES | inhibition at 10 µM [1, 9] | inhibition at 10 µM [1, 10] | inhibition at 10 µM [2, 11] | inhibition at 10 µM [2, 12] | inhibition at 10 µM [2, 13] | inhibition at 10 µM [2, 14] | inhibition at 10 µM [3, 15] | inhibition at 10 µM [3, 16] | inhibition at 10 µM [3, 17] | inhibition at 10 µM [3, 18] | inhibition at 10 µM [4, 19] | inhibition at 10 µM [4, 20] | inhibition at 10 µM [4, 21] | inhibition at 10 µM [4, 22] | inhibition at 10 µM [5, 23] | inhibition at 10 µM [5, 24] | inhibition at 10 µM [5, 25] | inhibition at 10 µM [6, 26] | inhibition at 10 µM [6, 27] | inhibition at 10 µM [6, 28] | further results
1 | NC(=O)OC[C@H](N)Cc1ccccc1 [APC, (R)-2-amino-3-phenylpropyl carbamate, reference compound] | 7% | 7% | -0.1% | 4.6% | 2.3% | 2.3% | -6.3% | -3.3% | -4.8% | -4.8% | 0.7% | 8.2% | 4.4% | 4.4% | 4.1% | 2.3% | 3.2% | 79.3% | 81.1% | 80.2% | inhibition at 10 µM [6, 29]: 80.2%; binding to the dopamine transporter (in words) [6]: substantial binding; inhibition at 10 µM [7, 30]: 6.9%; inhibition at 10 µM [7, 31]: 16%; inhibition at 10 µM [7, 32]: 11.4%; inhibition at 10 µM [7, 33]: 11.4%; inhibition at 10 µM [8, 23]: 5.2%; inhibition at 10 µM [8, 24]: 8.7%; inhibition at 10 µM [8, 25]: 7%
2 | NC(=O)CC[C@H](N)Cc1ccccc1 [Compound 4, (S)-4-Amino-5-phenylpentanamide hydrochloride] | 0% | 0% | 1.4% | 0.8% | 1.1% | 1.1% | -2.9% | 1.8% | -0.5% | -0.5% | -8.2% | -3.7% | -6% | -6% | 3.4% | 2.3% | 2.9% | 52.9% | 60% | 56.5% | inhibition at 10 µM [6, 29]: 56.5%; binding to the dopamine transporter (in words) [6]: substantial binding; inhibition at 10 µM [7, 30]: 7%; inhibition at 10 µM [7, 31]: -21.9%; inhibition at 10 µM [7, 32]: -7.5%; inhibition at 10 µM [7, 33]: -7.5%; inhibition at 10 µM [8, 23]: 7.8%; inhibition at 10 µM [8, 24]: -9.3%; inhibition at 10 µM [8, 25]: -0.8%
